{"source": "paper PMC12260939", "about": "“Radiosynthesis and Evaluation of ^11C‑Labeled Imidazolyl Pyrimidine Derivatives for Positron Emission Tomography Imaging of Glycogen Synthase Kinase‑3” (ACS Pharmacology & Translational Science, 2025)", "key": {"[1]": {"target": "human recombinant GSK3β (Homo sapiens, UniProt P49841)", "sequence (P49841 whole entry)": "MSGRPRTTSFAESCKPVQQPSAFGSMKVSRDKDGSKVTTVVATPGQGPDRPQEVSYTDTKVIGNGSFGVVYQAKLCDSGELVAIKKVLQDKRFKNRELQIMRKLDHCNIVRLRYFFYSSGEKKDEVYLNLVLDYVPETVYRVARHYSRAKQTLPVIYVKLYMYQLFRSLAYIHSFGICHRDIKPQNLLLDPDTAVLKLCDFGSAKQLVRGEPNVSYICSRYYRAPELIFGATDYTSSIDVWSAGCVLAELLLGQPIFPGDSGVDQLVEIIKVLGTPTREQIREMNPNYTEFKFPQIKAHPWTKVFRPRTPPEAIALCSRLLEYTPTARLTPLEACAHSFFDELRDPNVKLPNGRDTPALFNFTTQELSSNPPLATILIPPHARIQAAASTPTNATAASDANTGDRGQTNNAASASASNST", "test": "GSK3β scintillation proximity assay (SPA), inhibition of kinase activity", "type": "biochemical", "procedure": "The inhibition of GSK3β activity is assessed using a scintillation proximity assay (SPA) in a 96-well microtiter plate format. The assay utilizes purified human recombinant GSK3β enzyme (∼1 nM active), [γ-^33P]-ATP (0.04 μCi), and a biotinylated peptide substrate (Biotin-[…](PO3H2)-PQL) at a final concentration of 2 μM. Reactions are carried out in an assay buffer containing MOPS, EDTA, β-mercaptoethanol, Brij 35, glycerol, and BSA, and preincubated for 10–15 min at room temperature. Inhibitor testing is conducted in duplicate using 10 different concentrations. The kinase reaction is initiated by adding ATP (1 μM final) in the presence of 50 mM Mg(Ac)2. After a 15 min incubation at room temperature, the reaction is terminated by adding a solution (25 μL) containing 5 mM EDTA, 50 μM ATP, 0.1% Triton X-100, and 10 mg/mL streptavidin-coated SPA beads, followed by the addition of distilled water (50 μL). After a 6-h incubation, bound radioactivity is measured using a MicroBeta Trilux liquid scintillation counter (1450 MicroBeta Trilux, Wallac). Data are analyzed using nonlinear regression with variable slope (GraphPad Prism or Excel Fit), and results are reported as Ki values calculated via the Cheng-Prusoff equation."}, "[2]": {"target": "GSK-3", "test": "Radioligand saturation binding assay with tritiated ligands in hippocampal membranes", "set-up": "species or system Sprague–Dawley rat", "conditions": "tritiated ligand, hippocampus of SD rat brains", "procedure": "The pharmacology and physicochemical properties of compounds 13a–13e are depicted in Table . To evaluate binding affinities, saturation binding assays using tritiated ligands [^3H]13a, [^3H]13c, [^3H]13d, [^3H]13e (Scheme S1) were performed using the hippocampal tissue of Sprague–Dawley (SD) rat brains. As depicted in Table A, total binding (TB), nonspecific binding (NSB), and specific binding (SB) of the respective tritiated ligands were measured with increasing concentrations of the radioligands. The dissociation constant (Kd) and capacity (B max) of each radioligand were calculated to confirm their binding affinity.\nFor membrane preparation, hippocampal tissue from adult rats (Sprague–Dawley) was dissected out, weighed, and frozen in 0.32 M sucrose at −70 °C. On the experiment day, the tissue was thawed, homogenized in 50 mM Tris, 5 mM EDTA (pH 7.4) and then centrifuged at 48 000 xg for 15 min at +4 °C. The pellet was diluted in binding buffer (50 mM Tris, 4 mM MgCl2, 1 mM EDTA pH 7.4) to a final concentration of 2.5 mg w.w./mL. Saturation binding experiments were performed in duplicate, with each tube containing 1 mg w.w. in 0.5 mL binding buffer and 0.1 – 17 nM (11–12 concentrations) of radioligand. Nonspecific binding was measured by adding 10 μM AR-A014418. The assays were incubated for 2–3 h at room temperature and terminated by quick filtration using Whatman GF/B filters pretreated with 0.3% polyethylenimine on a Brandel cell harvester. Radioactivity was measured with a Packard Tri-Carb 2900TR liquid scintillation counter, and data were processed by nonlinear regression analyses using PRISM 4.03."}, "[3]": {"test": "Apparent permeability (Papp A-B) and efflux ratio", "type": "in vitro ADME", "procedure": "(§1) Multiparameter optimization (MPO) and brain/plasma concentration at steady-state (logBB) are widely used to predict BBB permeability. […] A detailed ADME/PK (absorption, distribution, metabolism, excretion and pharmacokinetics) profiling was conducted, and the results are listed in Table . […] These values meet the standards that BBB permeability is considered high if Papp A–B is ≥ 3.0 × 10^–6 cm/s and the efflux ratio is <3.0."}, "[4]": {"test": "Unbound fraction in brain (fu brain)", "type": "in vitro ADME", "procedure": "as §1"}, "[5]": {"test": "Solubility", "type": "physicochemical", "conditions": "in dry DMSO at pH = 7.4", "procedure": "as §1"}, "[6]": {"test": "Protein binding (% free)", "type": "in vitro ADME", "conditions": "read-out: mean Prot binding (% free)"}, "[7]": {"test": "Intrinsic clearance (CLint)", "type": "in vitro ADME", "conditions": "cells (cell type not named); read-out: median CLint"}, "[8]": {"test": "Pharmacokinetics: half-life and bioavailability", "conditions": "in vivo"}, "[9]": {"target": "hERG channel (Homo sapiens, UniProt Q12809)", "sequence (Q12809 whole entry)": "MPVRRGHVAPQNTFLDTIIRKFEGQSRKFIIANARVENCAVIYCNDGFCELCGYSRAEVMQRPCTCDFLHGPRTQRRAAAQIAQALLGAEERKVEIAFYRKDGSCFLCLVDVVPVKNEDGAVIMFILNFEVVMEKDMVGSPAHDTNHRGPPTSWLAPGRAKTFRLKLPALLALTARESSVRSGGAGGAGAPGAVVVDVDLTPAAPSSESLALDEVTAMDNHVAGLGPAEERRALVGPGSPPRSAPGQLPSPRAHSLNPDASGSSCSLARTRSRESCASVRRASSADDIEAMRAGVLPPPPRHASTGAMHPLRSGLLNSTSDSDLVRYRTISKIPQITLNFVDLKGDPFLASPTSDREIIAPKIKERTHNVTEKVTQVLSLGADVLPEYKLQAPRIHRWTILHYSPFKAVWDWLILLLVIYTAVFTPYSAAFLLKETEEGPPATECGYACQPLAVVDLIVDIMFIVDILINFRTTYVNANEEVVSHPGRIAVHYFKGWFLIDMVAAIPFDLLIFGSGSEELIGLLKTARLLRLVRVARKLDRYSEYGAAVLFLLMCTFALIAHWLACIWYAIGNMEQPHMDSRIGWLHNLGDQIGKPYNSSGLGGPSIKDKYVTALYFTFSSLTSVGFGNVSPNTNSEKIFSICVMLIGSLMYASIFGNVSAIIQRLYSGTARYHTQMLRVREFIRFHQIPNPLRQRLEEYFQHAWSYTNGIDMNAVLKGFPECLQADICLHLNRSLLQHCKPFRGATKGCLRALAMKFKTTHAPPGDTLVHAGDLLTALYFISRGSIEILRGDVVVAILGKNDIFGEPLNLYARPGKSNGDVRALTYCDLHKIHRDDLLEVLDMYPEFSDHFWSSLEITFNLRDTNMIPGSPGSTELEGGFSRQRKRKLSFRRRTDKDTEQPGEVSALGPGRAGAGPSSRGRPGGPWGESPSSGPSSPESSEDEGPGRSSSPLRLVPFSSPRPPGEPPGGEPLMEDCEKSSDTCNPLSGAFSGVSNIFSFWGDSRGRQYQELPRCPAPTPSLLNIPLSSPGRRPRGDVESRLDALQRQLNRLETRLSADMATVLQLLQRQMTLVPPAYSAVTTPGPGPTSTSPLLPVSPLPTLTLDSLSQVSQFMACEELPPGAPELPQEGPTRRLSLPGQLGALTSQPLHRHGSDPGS", "test": "hERG channel inhibition"}, "[10]": {"tested_on": "GSK-3β", "test": "In vitro autoradiography on rat brain tissue sections", "type": "binding", "conditions": "rat brain sections, baseline", "procedure": "In the next step, we performed in vitro autoradiography studies on rat brain tissue sections to investigate the binding selectivity and distribution of compounds [^3H]13a–13e (Figure ). […] These findings support the potential of this compound series for further development as GSK-3β-targeted neuroimaging probes.\nIn vitro autoradiography was conducted on 10 μm thick cry-cut tissue sections of rat tissue that had been thaw-mounted onto microscope slides. The brain sections were incubated in 50 mM Tris-HCl buffer at room temperature and then incubated with [^3H]-ligand for 30 min. The sections were rinsed three times for 10 min each in Tris buffer at 1 °C, followed by a quick rinse in deionized water at 1 °C, and then air-dried at room temperature with a fan. The radiolabeled sections and Amersham plastic tritium standards were then exposed to phosphoimager plates (Fuji BAS-TR2040) overnight. Blocking studies were conducted using a 1000-fold excess of the cold reference compounds, and validated GSK-3β inhibitors AR-A014418 and SB-216763. […] This micromolar concentration is consistent with established methods for GSK-3 radioligand autoradiography blocking experiments."}, "[11]": {"tested_on": "GSK-3", "test": "NHP PET imaging of brain uptake", "type": "in vivo, cynomolgus monkeys", "conditions": "i.v. bolus, baseline", "from_the_text": "(§2) Then, we sought to assess the in vivo PET imaging performance characteristics of [^11C]13a–e in NHPs, and the results are presented in Figure . […] One potential contributor is metabolic instability of those tracers may reduce the amount of intact tracers to cross the BBB. Another important consideration is efflux by ATP-binding cassette (ABC) transporters, such as P-glycoprotein (P-gp) that is highly expressed at the BBB and can actively pump substrates out of the CNS. To investigate whether 13a–e are P-gp efflux substrates, a P-gp inhibition study was conducted. […] To enhance brain uptake in future analogs, various medicinal chemistry strategies could be employed, such as hydrogen bond donor/acceptor optimization, fine-tuning lipophilicity, steric shielding of efflux motifs, and bioisosteric replacements. A potential limitation of this study is the lack of blood sampling during the PET scans, which precluded assessment of [^11C]13e plasma concentrations following tariquidar pretreatment. […]\n(§3) PET experiments were conducted on anesthetized healthy cynomolgus monkeys, following approval from the Stockholm Animal Research Ethical Committee (Dnr. 4820/06–600). […] The monkeys’ heads were stabilized with a fixation device, and body temperature was regulated with a Bair Hugger model 505 (Arizant Healthcare, MN, USA) and continuously monitored using an esophageal thermometer. […]"}, "[12]": {"tested_on": "P-glycoprotein (P-gp)", "test": "P-gp inhibition PET study (tariquidar pretreatment) in NHP", "type": "in vivo, cynomolgus monkeys", "from_the_text": "as §2, §3"}}, "data": [{"molecule": "CC(=O)N1CCN(Cc2ccc(Nc3ncc(F)c(-c4cnc(C)n4C4CCOCC4)n3)cc2)CC1", "note": "[13e]", "values": [{"measurement": "Ki", "setting": "[1]; GSK-3β, calculated via the Cheng-Prusoff equation", "value": 3.33, "unit": "nM"}, {"measurement": "IC50", "setting": "[1]; SPA, 1 μM ATP", "value": 4.44, "unit": "nM"}, {"measurement": "Kd", "setting": "[2]", "value": 2.94, "unit": "nM"}, {"measurement": "P app A-B", "setting": "[3]", "value": "12.7 × 10^–6 cm/s"}, {"measurement": "efflux ratio", "setting": "[3]; not told, Papp B–A/Papp A–B", "value": 1.4}, {"measurement": "fraction unbound", "setting": "[4]", "value": 0.12}, {"measurement": "solubility", "setting": "[5]", "value": 362, "unit": "µM"}, {"measurement": "fraction unbound", "setting": "[6]", "value": 0.111}, {"measurement": "hepatocyte CLint", "setting": "[7]", "value": 12, "unit": "µL/min/1e6 cells"}, {"measurement": "bioavailability", "setting": "[8]", "value": 10.1, "unit": "%"}, {"measurement": "half-life", "setting": "[8]; read-out: mean t 1/2 (converted)", "value": 104, "unit": "min"}, {"measurement": "IC50", "setting": "[9]", "value": 20.5, "unit": "µM"}, {"measurement": "regional binding in autoradiography", "setting": "[10]; by brain region", "value": "high binding in the cortex and hippocampus, moderate uptake in the striatum and cerebellum, and relatively low binding in the thalamus"}, {"measurement": "radioactive accumulation / distribution in autoradiography", "setting": "[10]; tritiated ligand", "value": "highest and most regionally distinct uptake"}, {"measurement": "brain uptake (PET)", "setting": "[11]", "value": "relatively higher signals in the brain"}, {"measurement": "P-gp substrate status", "setting": "[12]; NHP PET", "value": "P-glycoprotein substrate"}, {"measurement": "brain uptake after P-gp inhibition", "setting": "[12]; NHP, Tariquidar 6 mg/kg", "value": "significantly increased the brain uptake"}]}]}
